Reference: patent US20240239861A1, “GLUCAGON-RECEPTOR SELECTIVE POLYPEPTIDES AND METHODS OF USE THEREOF” (i2O Therapeutics, Inc., priority 2016, published 2024)
Where a SMILES comes first, the peptide text is derived from it. [ ]: non-standard residue; d: D form. Aib = CC(C)(N)C(=O)O

Legend:
human GCGR = human GCGR (Homo sapiens, UniProt P47871); assay: Peptide-receptor mediated cAMP accumulation (LANCE Ultra cAMP) in CHO-K1 cells transfected with human GCGR; assay type: cell-based; conditions: Table 3
human GCGR, sequence (P47871 26-477): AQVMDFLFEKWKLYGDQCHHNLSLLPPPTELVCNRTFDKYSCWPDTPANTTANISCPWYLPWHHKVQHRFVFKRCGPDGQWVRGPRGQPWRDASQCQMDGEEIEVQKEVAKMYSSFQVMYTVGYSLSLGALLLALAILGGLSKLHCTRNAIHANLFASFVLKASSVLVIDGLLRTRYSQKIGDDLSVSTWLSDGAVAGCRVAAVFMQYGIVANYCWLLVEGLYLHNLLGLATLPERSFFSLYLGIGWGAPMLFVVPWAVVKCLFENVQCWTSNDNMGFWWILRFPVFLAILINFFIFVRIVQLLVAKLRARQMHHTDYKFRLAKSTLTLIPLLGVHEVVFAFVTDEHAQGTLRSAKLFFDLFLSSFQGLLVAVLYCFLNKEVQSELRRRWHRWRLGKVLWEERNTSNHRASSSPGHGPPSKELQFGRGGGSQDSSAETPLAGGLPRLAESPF

human GLP-1R = human GLP-1R (Homo sapiens, UniProt P43220); assay: Peptide-receptor mediated cAMP accumulation (LANCE Ultra cAMP) in CHO-K1 cells transfected with human GLP-1R; assay type: cell-based; conditions: hGLP1 pEC50 (cAMP mean (n = 3): 11 point curve starting at 1 nM, Table 3)
human GLP-1R, sequence (P43220 24-463): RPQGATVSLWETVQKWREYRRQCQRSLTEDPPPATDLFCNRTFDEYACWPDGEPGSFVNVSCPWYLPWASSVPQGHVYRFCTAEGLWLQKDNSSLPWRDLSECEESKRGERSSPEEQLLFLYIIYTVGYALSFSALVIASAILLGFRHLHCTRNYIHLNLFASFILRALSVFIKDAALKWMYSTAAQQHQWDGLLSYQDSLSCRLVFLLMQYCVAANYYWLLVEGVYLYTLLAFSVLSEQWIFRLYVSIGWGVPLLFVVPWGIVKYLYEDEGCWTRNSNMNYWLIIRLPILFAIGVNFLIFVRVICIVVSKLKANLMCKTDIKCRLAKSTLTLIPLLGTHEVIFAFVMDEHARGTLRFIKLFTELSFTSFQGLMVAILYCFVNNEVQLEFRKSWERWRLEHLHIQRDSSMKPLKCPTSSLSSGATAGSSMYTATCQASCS

Row | Structure (SMILES) | EC50 (human GCGR) | EC50 (human GLP-1R)
1 | CC(C)C[C@H](NC(=O)[C@H](Cc1ccc(O)cc1)NC(=O)[C@H](CCCCN)NC(=O)[C@H](CO)NC(=O)[C@H](Cc1ccc(O)cc1)NC(=O)[C@H](CC(=O)O)NC(=O)[C@H](CO)NC(=O)[C@@H](NC(=O)[C@H](Cc1ccccc1)NC(=O)[C@@H](NC(=O)CNC(=O)[C@H](Cc1c[nH]cn1)NC(=O)[C@H](CO)NC(=O)[C@@H](N)Cc1ccc(O)cc1)[C@@H](C)O)[C@@H](C)O)C(=O)N[C@@H](CC(=O)O)C(=O)NC(C)(C)C(=O)N[C@@H](CCCCN)C(=O)N[C@@H](CCCNC(=N)N)C(=O)N[C@@H](C)C(=O)N[C@@H](CCC(N)=O)C(=O)N[C@@H](CCC(=O)O)C(=O)N[C@@H](Cc1ccccc1)C(=O)N[C@H](C(=O)NC(C)(C)C(=O)N[C@@H](Cc1c[nH]c2ccccc12)C(=O)N[C@@H](CC(C)C)C(=O)N[C@@H](CCC(=O)O)C(=O)N[C@@H](CC(=O)O)C(=O)N[C@@H](CCC(=O)O)C(=O)N1CCC[C@H]1C(=O)N[C@@H](CCCCN)C(=O)N[C@@H](CO)C(=O)NCC(=O)N[C@@H](C)C(=O)N1CCC[C@H]1C(=O)N1CCC[C@H]1C(=O)N1CCC[C@H]1C(=O)N[C@@H](CO)C(=O)O)C(C)C [Compound A29] (H-YSHGTFTSDYSKYLD[Aib]KRAQEFV[Aib]WLEDEPKSGAPPPS-OH) | 0.00794 nM | > 1 nM
2 | CC(C)C[C@H](NC(=O)[C@H](Cc1ccc(O)cc1)NC(=O)[C@H](CCCCN)NC(=O)[C@H](CO)NC(=O)[C@H](Cc1ccc(O)cc1)NC(=O)[C@H](CC(=O)O)NC(=O)[C@H](CO)NC(=O)[C@@H](NC(=O)[C@H](Cc1ccccc1)NC(=O)[C@@H](NC(=O)CNC(=O)[C@H](Cc1c[nH]cn1)NC(=O)[C@H](CO)NC(=O)[C@@H](N)Cc1ccc(O)cc1)[C@@H](C)O)[C@@H](C)O)C(=O)N[C@@H](CC(=O)O)C(=O)NC(C)(C)C(=O)N[C@@H](CCCCN)C(=O)N[C@@H](CCCNC(=N)N)C(=O)N[C@@H](C)C(=O)N[C@@H](CCC(N)=O)C(=O)N[C@@H](CCC(=O)O)C(=O)N[C@@H](Cc1ccccc1)C(=O)N[C@H](C(=O)NC(C)(C)C(=O)N[C@@H](Cc1c[nH]c2ccccc12)C(=O)N[C@@H](CC(C)C)C(=O)N[C@@H](CCC(=O)O)C(=O)N[C@@H](CC(=O)O)C(=O)N[C@@H](CCC(=O)O)C(=O)N1CCC[C@H]1C(=O)N[C@@H](CO)C(=O)N[C@@H](CCCCN)C(=O)NCC(=O)N[C@@H](C)C(=O)N1CCC[C@H]1C(=O)N1CCC[C@H]1C(=O)N1CCC[C@H]1C(=O)N[C@@H](CO)C(=O)O)C(C)C [Compound A30] (H-YSHGTFTSDYSKYLD[Aib]KRAQEFV[Aib]WLEDEPSKGAPPPS-OH; N-terminus assumed) | 0.0126 nM | > 1 nM
3 | CC(C)C[C@H](NC(=O)[C@H](Cc1ccc(O)cc1)NC(=O)[C@H](CCCCN)NC(=O)[C@H](CO)NC(=O)[C@H](Cc1ccc(O)cc1)NC(=O)[C@H](CC(=O)O)NC(=O)[C@H](CO)NC(=O)[C@@H](NC(=O)[C@H](Cc1ccccc1)NC(=O)[C@@H](NC(=O)CNC(=O)[C@H](Cc1c[nH]cn1)NC(=O)[C@H](CO)NC(=O)[C@@H](N)Cc1ccc(O)cc1)[C@@H](C)O)[C@@H](C)O)C(=O)N[C@@H](CC(=O)O)C(=O)NC(C)(C)C(=O)N[C@@H](CCCCN)C(=O)N[C@@H](CCCNC(=N)N)C(=O)N[C@@H](C)C(=O)N[C@@H](CCC(N)=O)C(=O)N[C@@H](CCC(=O)O)C(=O)N[C@@H](Cc1ccccc1)C(=O)N[C@H](C(=O)NC(C)(C)C(=O)N[C@@H](Cc1c[nH]c2ccccc12)C(=O)N[C@@H](CC(C)C)C(=O)N[C@@H](CCC(=O)O)C(=O)N[C@@H](CC(=O)O)C(=O)N[C@@H](CCC(=O)O)C(=O)N1CCC[C@H]1C(=O)N[C@@H](CCC(=O)O)C(=O)N[C@@H](CO)C(=O)NCC(=O)N[C@@H](C)C(=O)N1CCC[C@H]1C(=O)N1CCC[C@H]1C(=O)N1CCC[C@H]1C(=O)N[C@@H](CO)C(=O)O)C(C)C [Compound A31] (H-YSHGTFTSDYSKYLD[Aib]KRAQEFV[Aib]WLEDEPESGAPPPS-OH; N-terminus assumed) | 0.002 nM | > 1 nM
4 | CC(C)C[C@H](NC(=O)[C@H](Cc1c[nH]c2ccccc12)NC(=O)[C@H](CCCCN)NC(=O)[C@H](CO)NC(=O)[C@H](Cc1c[nH]cn1)NC(=O)[C@H](CC(=O)O)NC(=O)[C@H](CO)NC(=O)[C@@H](NC(=O)[C@H](Cc1ccccc1)NC(=O)[C@@H](NC(=O)CNC(=O)[C@H](Cc1c[nH]cn1)NC(=O)[C@H](CO)NC(=O)[C@@H](N)Cc1ccc(O)cc1)[C@@H](C)O)[C@@H](C)O)C(=O)N[C@@H](CC(=O)O)C(=O)NC(C)(C)C(=O)N[C@@H](CCCCN)C(=O)N[C@@H](CCCNC(=N)N)C(=O)N[C@@H](C)C(=O)N[C@@H](CCC(N)=O)C(=O)N[C@@H](CCC(=O)O)C(=O)N[C@@H](Cc1ccccc1)C(=O)N[C@H](C(=O)NC(C)(C)C(=O)N[C@@H](Cc1c[nH]c2ccccc12)C(=O)N[C@@H](CC(C)C)C(=O)N[C@@H](CCC(=O)O)C(=O)N[C@@H](CC(=O)O)C(=O)N[C@@H](CCC(=O)O)C(=O)N1CCC[C@H]1C(=O)N[C@@H](CO)C(=O)N[C@@H](CO)C(=O)NCC(=O)N[C@@H](C)C(=O)N1CCC[C@H]1C(=O)N1CCC[C@H]1C(=O)N1CCC[C@H]1C(=O)N[C@@H](CO)C(=O)O)C(C)C [Compound A33] (H-YSHGTFTSDHSKWLD[Aib]KRAQEFV[Aib]WLEDEPSSGAPPPS-OH; N-terminus assumed) | 0.0126 nM | > 1 nM
5 | CC(C)C[C@H](NC(=O)[C@H](Cc1c[nH]c2ccccc12)NC(=O)[C@H](CCCCN)NC(=O)[C@H](CO)NC(=O)[C@H](Cc1c[nH]cn1)NC(=O)[C@H](CC(=O)O)NC(=O)[C@H](CO)NC(=O)[C@@H](NC(=O)[C@H](Cc1ccccc1)NC(=O)[C@@H](NC(=O)CNC(=O)[C@H](Cc1c[nH]cn1)NC(=O)[C@@H](NC(=O)[C@@H](N)Cc1ccc(O)cc1)[C@@H](C)O)[C@@H](C)O)[C@@H](C)O)C(=O)N[C@@H](CC(=O)O)C(=O)NC(C)(C)C(=O)N[C@@H](CCCCN)C(=O)N[C@@H](CCCNC(=N)N)C(=O)N[C@@H](C)C(=O)N[C@@H](CCC(N)=O)C(=O)N[C@@H](CCC(=O)O)C(=O)N[C@@H](Cc1ccccc1)C(=O)N[C@H](C(=O)NC(C)(C)C(=O)N[C@@H](Cc1c[nH]c2ccccc12)C(=O)N[C@@H](CC(C)C)C(=O)N[C@@H](CCC(=O)O)C(=O)N[C@@H](CC(=O)O)C(=O)N[C@@H](CCC(=O)O)C(=O)N1CCC[C@H]1C(=O)N[C@@H](CO)C(=O)N[C@@H](CO)C(=O)NCC(=O)N[C@@H](C)C(=O)N1CCC[C@H]1C(=O)N1CCC[C@H]1C(=O)N1CCC[C@H]1C(=O)N[C@@H](CO)C(=O)O)C(C)C [Compound A34] (H-YTHGTFTSDHSKWLD[Aib]KRAQEFV[Aib]WLEDEPSSGAPPPS-OH; N-terminus assumed) | 0.0501 nM | > 1 nM
6 | CC(C)C[C@H](NC(=O)[C@H](Cc1c[nH]c2ccccc12)NC(=O)[C@H](CCCCN)NC(=O)[C@H](CO)NC(=O)[C@H](Cc1c[nH]cn1)NC(=O)[C@H](CC(=O)O)NC(=O)[C@H](CO)NC(=O)[C@@H](NC(=O)[C@H](Cc1ccccc1)NC(=O)[C@@H](NC(=O)CNC(=O)[C@H](Cc1c[nH]cn1)NC(=O)[C@H](CO)NC(=O)[C@@H](N)Cc1ccc(O)cc1)[C@@H](C)O)[C@@H](C)O)C(=O)N[C@@H](CC(=O)O)C(=O)NC(C)(C)C(=O)N[C@@H](C)C(=O)N[C@@H](CCCNC(=N)N)C(=O)N[C@@H](C)C(=O)N[C@@H](CCC(N)=O)C(=O)N[C@@H](CCC(=O)O)C(=O)N[C@@H](Cc1ccccc1)C(=O)N[C@H](C(=O)NC(C)(C)C(=O)N[C@@H](Cc1c[nH]c2ccccc12)C(=O)N[C@@H](CC(C)C)C(=O)N[C@@H](CCC(=O)O)C(=O)N[C@@H](CC(=O)O)C(=O)N[C@@H](CCC(=O)O)C(=O)N1CCC[C@H]1C(=O)N[C@@H](CO)C(=O)N[C@@H](CO)C(=O)NCC(=O)N[C@@H](C)C(=O)N1CCC[C@H]1C(=O)N1CCC[C@H]1C(=O)N1CCC[C@H]1C(=O)N[C@@H](CO)C(=O)O)C(C)C [Compound A36] (H-YSHGTFTSDHSKWLD[Aib]ARAQEFV[Aib]WLEDEPSSGAPPPS-OH; N-terminus assumed) | 0.0631 nM | > 1 nM
7 | CC(C)C[C@H](NC(=O)[C@H](Cc1c[nH]c2ccccc12)NC(=O)[C@H](CCCCN)NC(=O)[C@H](CO)NC(=O)[C@H](Cc1ccc(O)cc1)NC(=O)[C@H](CC(=O)O)NC(=O)[C@H](CO)NC(=O)[C@@H](NC(=O)[C@H](Cc1ccccc1)NC(=O)[C@@H](NC(=O)CNC(=O)[C@H](Cc1c[nH]cn1)NC(=O)[C@@H](NC(=O)[C@@H](N)Cc1ccc(O)cc1)[C@@H](C)O)[C@@H](C)O)[C@@H](C)O)C(=O)N[C@@H](CC(=O)O)C(=O)N[C@@H](CO)C(=O)N[C@@H](C)C(=O)N[C@@H](CCCNC(=N)N)C(=O)N[C@@H](C)C(=O)N[C@@H](CCC(N)=O)C(=O)N[C@@H](CCC(=O)O)C(=O)N[C@@H](Cc1ccccc1)C(=O)N[C@H](C(=O)N[C@@H](CCCCN)C(=O)N[C@@H](Cc1c[nH]c2ccccc12)C(=O)N[C@@H](CC(C)C)C(=O)N[C@@H](CCC(=O)O)C(=O)N[C@@H](CC(=O)O)C(=O)N[C@@H](CCC(=O)O)C(=O)N1CCC[C@H]1C(=O)N[C@@H](CO)C(=O)N[C@@H](CO)C(=O)NCC(=O)N[C@@H](C)C(=O)N1CCC[C@H]1C(=O)N1CCC[C@H]1C(=O)N1CCC[C@H]1C(=O)N[C@@H](CO)C(=O)O)C(C)C [Compound A39] (H-YTHGTFTSDYSKWLDSARAQEFVKWLEDEPSSGAPPPS-OH; N-terminus assumed) | 0.398 nM | > 1 nM
